Data on ten compounds can be found in patent publication US9617256B2 (priority 2007, dated 2017).

In one assay the test system is AECO001 (ATCC25922). As to the kind of experiment: MIC broth microdilution, AECO001. Particulars: Escherichia coli. Type of assay: cell-based, E. coli. In a few lines: (§1)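 Minimum inhibitory concentrations followed CLSI broth microdilution guidelines: cation-adjusted Mueller-Hinton broth, 2-fold serial drug dilutions, final inoculum 3×10^5–7×10^5 CFU/mL, ambient air at 35° C. for 18-24 hours. Quality-control strains and levofloxacin monitored performance.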

In a further assay the test system is APAE001 (ATCC27853). Nature of the assay: MIC broth microdilution, APAE001. Format: cell-based, P. aeruginosa. Conditions: Pseudomonas aeruginosa, ATCC27853, read-out: MIC APAE001, APAE001 (ATCC27853). The procedure, abridged:
as §1
Background: Broth dilution looks for growth in wells or tubes with falling amounts of substance.

Assay [1] has as its system APAE006 in the presence of 8 micrograms per milliliter of polymyxin B nonapeptide. Type of assay: cell-based, P. aeruginosa. Particulars: APAE006 with 8 micrograms per milliliter polymyxin B nonapeptide. The procedure, abridged:
(§2)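 Two-fold drug dilutions in cation-adjusted MHB were inoculated to 3×10^5–7×10^5 CFU/mL and held at 35° C. for 18-24 hours (ambient air), following CLSI. APAE006 is an efflux-deficient P. aeruginosa.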

For assay [2], the system named is AABA1060 (clinical isolate of Acinetobacter baumannii). Nature of the assay: MIC broth microdilution, AABA1060. Particulars: Acinetobacter baumannii, read-out: MIC AABA1060. Type of assay: cell-based. The procedure, abridged: as §1
Assay [3] has as its system AECO063 (ATCC25922 bearing an acrAB mutation). Nature of the assay: microbe, parasite or virus in culture. Type of assay: cell-based, E. coli. Particulars: Escherichia coli, ATCC25922, read-out: MIC AECO063. The procedure, abridged:
as §1

Assay [4] relates to ASAU001 (laboratory strain of S. aureus, ATCC29213). Nature of the assay: MIC broth microdilution, ASAU001. Type of assay: cell-based. Particulars: Staphylococcus aureus, ATCC29213, read-out: MIC ASAU001. In a few lines: as §1
For assay [5], the system named is APAE006 (strain of P. aeruginosa in which all efflux pumps are inactivated). Nature of the assay: microbe, parasite or virus in culture. Type of assay: cell-based. Conditions: Pseudomonas aeruginosa, read-out: MIC APAE006, APAE006, all efflux pumps inactivated. The procedure, abridged:
as §2

The mark [6] stands for this setting: ATCC25922, read-out: MIC AECO001.
The mark [7] stands for this setting: ATCC25922, read-out: MIC AECO001 HSA AGP.

Values after ≈ are worked out from the molar mass of the structure shown. Read-outs that look alike come from different tables or passages of the source.

`CC(C)(N)C(NC(=O)c1ccc(C#CC#Cc2ccncc2)cc1)C(=O)NO` (centres unmarked) [Example 88-6]: the MIC in the assay on AECO001 (ATCC25922) (setting [6]) was below 2 mg/L; in the assay on AECO001 (ATCC25922) (setting [7]) it was 2 to 16 mg/L (≈ 5.31 to 42.5 µM); in the assay with APAE001 (ATCC27853), 2 to 16 mg/L (≈ 5.31 to 42.5 µM); in assay [2], 2 to 16 mg/L (≈ 5.31 to 42.5 µM); in assay [3], below 2 mg/L; in assay [4], 16 to 64 mg/L (≈ 42.5 to 170 µM). In addition, in assay [5], the MIC is below 2 mg/L. In assay [1], the “MIC APAE006 + PMBN” value is given as “A (MIC's of 2.0 μg/mL or less = A)”.
Consider `Cn1cc(C#CC#Cc2ccc(C(=O)N[C@H](C(=O)NO)C(C)(C)O)cc2)cn1` [Example 89-3], for which the MIC was below 2 mg/L in the assay on AECO001 (ATCC25922) (setting [6]); below 2 mg/L in the assay with AECO001 (ATCC25922) (setting [7]); below 2 mg/L with APAE001 (ATCC27853); 2 to 16 mg/L (≈ 5.26 to 42.1 µM) in assay [2]; below 2 mg/L in assay [3]; 16 to 64 mg/L (≈ 42.1 to 168 µM) in assay [4]. Besides, the MIC in assay [5] is below 2 mg/L. The “MIC APAE006 + PMBN” value in assay [1] is given as “A (MIC's of 2.0 μg/mL or less = A)”.
With `CCOCc1ccc(C#CC#Cc2ccc(C(=O)N[C@H](C(=O)NO)[C@@H](C)O)cc2)cc1` [Example 82-20], the MIC with AECO001 (ATCC25922) (setting [6]) was below 2 mg/L; in the assay on AECO001 (ATCC25922) (setting [7]) it was 2 to 16 mg/L (≈ 4.76 to 38.1 µM); in the assay on APAE001 (ATCC27853), 2 to 16 mg/L (≈ 4.76 to 38.1 µM); in assay [2] it was 2 to 16 mg/L (≈ 4.76 to 38.1 µM); in assay [3], below 2 mg/L; in assay [4], 16 to 64 mg/L (≈ 38.1 to 152 µM). Moreover, in assay [5], the MIC is below 2 mg/L. The “MIC APAE006 + PMBN” value in assay [1] is listed as “A (MIC's of 2.0 μg/mL or less = A)”.
Take `CC(C)(N)[C@H](NC(=O)c1ccc(C#CC#CCC2CCCC2)cc1)C(=O)NO` [Example 91-23]: the MIC in the assay with AECO001 (ATCC25922) (setting [6]) was below 2 mg/L; in the assay with AECO001 (ATCC25922) (setting [7]), 2 to 16 mg/L (≈ 5.24 to 41.9 µM); in the assay on APAE001 (ATCC27853) it was 2 to 16 mg/L (≈ 5.24 to 41.9 µM); in assay [2], 2 to 16 mg/L (≈ 5.24 to 41.9 µM); in assay [3], below 2 mg/L; in assay [4] it was 2 to 16 mg/L (≈ 5.24 to 41.9 µM). In assay [5], the MIC was below 2 mg/L. Also, in assay [1], the “MIC APAE006 + PMBN” value is listed as “A (MIC's of 2.0 μg/mL or less = A)”.
With `CC(C)(N)[C@H](NC(=O)c1ccc(C#Cc2ccc(CNCC(F)F)cc2)cc1)C(=O)NO` [Example 122-3], the MIC is below 2 mg/L in the assay on AECO001 (ATCC25922) (setting [6]); below 2 mg/L in the assay with AECO001 (ATCC25922) (setting [7]); below 2 mg/L in the assay with APAE001 (ATCC27853); below 2 mg/L in assay [2]; below 2 mg/L in assay [3]; 16 to 64 mg/L (≈ 36 to 144 µM) in assay [4]. In addition, the MIC in assay [5] is below 2 mg/L. In addition, the “MIC APAE006 + PMBN” value in assay [1] is on record as “A (MIC's of 2.0 μg/mL or less = A)”.
As for `NC[C@H](NC(=O)C#Cc1ccc(C#CCN2CCOCC2)cc1)C(=O)NO` [Example 137-10], the MIC (in the assay on AECO001 (ATCC25922) (setting [6]); in the assay on AECO001 (ATCC25922) (setting [7]); in the assay with APAE001 (ATCC27853); in assay [2]; in assay [3]; in assay [4]) was above 64 mg/L in each case. Also, the MIC in assay [5] was in the range of 16 to 64 mg/L (≈ 43.2 to 173 µM). Besides, the “MIC APAE006 + PMBN” value in assay [1] is on record as “C (MIC's of greater than 16.0 μg/mL to 64.0 μg/mL = C)”.
For `CC(C)(N)[C@H](NC(=O)c1ccc(C#CC#Cc2ccc(CN3CCS(=O)(=O)CC3)cc2)cc1)C(=O)NO` [Example 86-7], the MIC in the assay with AECO001 (ATCC25922) (setting [6]) is below 2 mg/L; with AECO001 (ATCC25922) (setting [7]) it was 2 to 16 mg/L (≈ 3.83 to 30.6 µM); in the assay with APAE001 (ATCC27853), 2 to 16 mg/L (≈ 3.83 to 30.6 µM); in assay [2] it was below 2 mg/L; in assay [3], below 2 mg/L; in assay [4] it was 16 to 64 mg/L (≈ 30.6 to 122 µM). Also, the MIC in assay [5] is below 2 mg/L. In assay [1], the “MIC APAE006 + PMBN” value is “A (MIC's of 2.0 μg/mL or less = A)”.
Take `CCCC#CC#Cc1ccc(C(=O)N[C@H](C(=O)NO)[C@@H](C)N)cc1` [Example 91-8]: the MIC in the assay on AECO001 (ATCC25922) (setting [6]) is below 2 mg/L; in the assay with AECO001 (ATCC25922) (setting [7]) it was 2 to 16 mg/L (≈ 6.11 to 48.9 µM); with APAE001 (ATCC27853), below 2 mg/L; in assay [2] it was 2 to 16 mg/L (≈ 6.11 to 48.9 µM); in assay [3], below 2 mg/L; in assay [4], 2 to 16 mg/L (≈ 6.11 to 48.9 µM). Besides, the MIC in assay [5] was below 2 mg/L. Further, the “MIC APAE006 + PMBN” value in assay [1] is given as “A (MIC's of 2.0 μg/mL or less = A)”.
`CC(C)(N)[C@H](NC(=O)c1ccc(/C=C/C#Cc2ccc(CNC3CC3)cc2)cc1)C(=O)NO` [Example 113-6]: the MIC in the assay on AECO001 (ATCC25922) (setting [6]) was below 2 mg/L; with AECO001 (ATCC25922) (setting [7]), below 2 mg/L; in the assay on APAE001 (ATCC27853), below 2 mg/L; in assay [2], below 2 mg/L; in assay [3], below 2 mg/L; in assay [4], 16 to 64 mg/L (≈ 35.8 to 143 µM). In assay [5], the MIC is below 2 mg/L. Also, the “MIC APAE006 + PMBN” value in assay [1] is “A (MIC's of 2.0 μg/mL or less = A)”.
Consider `CC(C)(O)[C@H](NC(=O)c1ccc(C#C/C=C/c2ccc(F)cc2)cc1)C(=O)NO` [Example 106-7], for which the MIC in the assay on AECO001 (ATCC25922) (setting [6]) was below 2 mg/L; in the assay on AECO001 (ATCC25922) (setting [7]), 2 to 16 mg/L (≈ 5.05 to 40.4 µM); in the assay on APAE001 (ATCC27853) it was 2 to 16 mg/L (≈ 5.05 to 40.4 µM); in assay [2], 2 to 16 mg/L (≈ 5.05 to 40.4 µM); in assay [3], below 2 mg/L; in assay [4], 16 to 64 mg/L (≈ 40.4 to 161 µM). In assay [5], the MIC was below 2 mg/L. Also, the “MIC APAE006 + PMBN” value in assay [1] is listed as “A (MIC's of 2.0 μg/mL or less = A)”.
